Key:
[1] = molecular target: T1, CLK1 (H148-I484) (Homo sapiens, UniProt P49759); conditions: binder
[2] = molecular target: CLK1 (H148-I484) (Homo sapiens, UniProt P49759, V324A); conditions: binder
[3] = molecular target: T2, CLK3 (R134-T484) (Homo sapiens, UniProt P49761); conditions: binder
[4] = molecular target: T3, CLK3 (R134-T484) (Homo sapiens, UniProt P49761, A319V); conditions: binder
[5] = molecular target: CLK1 (full-length) (Homo sapiens, UniProt P49759); assay: cell-based
[6] = molecular target: CLK1 (full-length) (Homo sapiens, UniProt P49759, V324A); assay: cell-based
[7] = molecular target: CLK1 (Homo sapiens, UniProt P49759); conditions: binder
[8] = molecular target: CLK3 (Homo sapiens, UniProt P49761); conditions: binder
[9] = molecular target: T3, CLK3 (R134-T484); assay: Omnia kinase assay; assay type: biochemical
[10] = molecular target: T2, CLK3 (R134-T484); conditions: binder; remark: listed apart in the source
[11] = molecular target: T1, CLK1 (H148-I484); conditions: binder; remark: listed apart in the source

Sequence of CLK1 (full-length) (Homo sapiens, UniProt P49759, V324A) (P49759 whole entry V324A): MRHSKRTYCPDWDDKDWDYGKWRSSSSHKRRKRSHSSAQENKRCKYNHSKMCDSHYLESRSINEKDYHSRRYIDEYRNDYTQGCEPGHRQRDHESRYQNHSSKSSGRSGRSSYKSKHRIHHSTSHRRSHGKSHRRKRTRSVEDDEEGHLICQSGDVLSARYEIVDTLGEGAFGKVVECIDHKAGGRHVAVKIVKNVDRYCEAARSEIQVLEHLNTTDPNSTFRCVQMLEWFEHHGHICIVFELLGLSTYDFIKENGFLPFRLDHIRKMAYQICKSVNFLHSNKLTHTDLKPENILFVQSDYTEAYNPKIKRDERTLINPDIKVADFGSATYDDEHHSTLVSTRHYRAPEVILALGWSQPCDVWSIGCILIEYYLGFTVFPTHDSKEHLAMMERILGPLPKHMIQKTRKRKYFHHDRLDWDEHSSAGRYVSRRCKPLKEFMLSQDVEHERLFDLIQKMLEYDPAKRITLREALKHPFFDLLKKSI
Sequence of CLK1 (full-length) (Homo sapiens, UniProt P49759) (P49759 whole entry): as the sequence (P49759 whole entry V324A) above, with A324V counted along it
T3 sequence (P49761 134-484 A319V): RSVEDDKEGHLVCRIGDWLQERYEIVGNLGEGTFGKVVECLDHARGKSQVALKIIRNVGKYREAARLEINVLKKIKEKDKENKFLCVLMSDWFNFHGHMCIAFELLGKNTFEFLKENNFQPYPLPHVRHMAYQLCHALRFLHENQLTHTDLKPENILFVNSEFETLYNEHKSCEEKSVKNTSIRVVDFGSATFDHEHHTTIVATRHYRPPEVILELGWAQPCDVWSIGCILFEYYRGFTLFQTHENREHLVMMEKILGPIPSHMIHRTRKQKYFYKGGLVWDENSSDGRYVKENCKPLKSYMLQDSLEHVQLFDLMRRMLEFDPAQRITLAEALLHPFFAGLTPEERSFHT
T1 sequence (P49759 148-484): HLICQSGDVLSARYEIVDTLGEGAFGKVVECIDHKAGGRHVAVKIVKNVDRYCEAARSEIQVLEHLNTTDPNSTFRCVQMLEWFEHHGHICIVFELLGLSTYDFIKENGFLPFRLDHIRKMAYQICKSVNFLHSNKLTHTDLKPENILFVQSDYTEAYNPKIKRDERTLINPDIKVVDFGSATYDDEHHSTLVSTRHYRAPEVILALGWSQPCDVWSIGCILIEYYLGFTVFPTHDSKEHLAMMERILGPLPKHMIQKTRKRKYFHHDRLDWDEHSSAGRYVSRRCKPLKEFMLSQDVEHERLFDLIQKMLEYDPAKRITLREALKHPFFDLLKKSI
Sequence of CLK1 (H148-I484) (Homo sapiens, UniProt P49759, V324A) (P49759 148-484 V324A): as the sequence (P49759 148-484) above, with V177A counted along it
T2 sequence (P49761 134-484): as the sequence (P49761 134-484 A319V) above, with V186A counted along it
Sequence of CLK1 (P49759 whole entry): as the sequence (P49759 whole entry V324A) above, with A324V counted along it
Sequence of CLK3 (P49761 whole entry): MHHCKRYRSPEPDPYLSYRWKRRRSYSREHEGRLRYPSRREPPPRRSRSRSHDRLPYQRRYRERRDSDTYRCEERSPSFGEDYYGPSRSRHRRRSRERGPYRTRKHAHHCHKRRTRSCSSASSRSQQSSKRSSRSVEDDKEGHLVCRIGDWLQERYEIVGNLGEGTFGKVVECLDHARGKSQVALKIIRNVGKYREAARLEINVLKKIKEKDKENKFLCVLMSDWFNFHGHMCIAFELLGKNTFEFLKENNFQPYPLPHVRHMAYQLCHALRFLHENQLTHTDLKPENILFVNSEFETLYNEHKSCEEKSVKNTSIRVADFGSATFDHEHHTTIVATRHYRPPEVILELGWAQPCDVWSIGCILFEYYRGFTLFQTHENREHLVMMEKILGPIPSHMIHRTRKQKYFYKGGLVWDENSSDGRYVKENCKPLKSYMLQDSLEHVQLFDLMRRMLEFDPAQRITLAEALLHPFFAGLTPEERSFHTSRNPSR

| Structure (SMILES) | ΔTm wild type CLK1 [1] [°C] | ΔTm V324A CLK1 [2] [°C] | ΔTm wild type CLK3 [3] [°C] | ΔTm A319V CLK3 [4] [°C] | Ki [6] [nM] | further results |
| --- | --- | --- | --- | --- | --- | --- |
| CN1CCC2(CC1)NC(=O)c1c(c3ccc(Cl)c(Cl)c3n1C)C2C#N (stereo not shown) [compound 16, KH-CARB10] | 6.1 | 1.8 | 1.1 | 5.0 | – | – |
| O=C1NCc2ccc3c(-c4cccc(Cl)c4)c[nH]c3c21 [compound 11] | 9.4 | 5.1 | 1.7 | 4.7 | – | – |
| CC(=O)c1cccc(-c2cnc3ccc(NC(CO)C(C)C)nn23)c1 (stereo not shown) [compound 9] | 6.8 | 3.9 | 1.8 | 8.6 | – | – |
| O=c1c2c(ccc3nc(-c4cccnc4)sc32)ncn1C1CC1 [compound 12, FC162] | – | – | – | – | 5450 ± 790 | Ki [5]: 1860 ± 1200 nM |
| O=C1NCc2ccc3c(-c4cccc(Cl)c4)c[nH]c3c21 [compound 11, KuWal151] | – | – | – | – | 878 ± 46 | Ki [5]: 228 ± 80 nM |
| O=c1c2c(ccc3nc(-c4cccnc4)sc32)ncn1C1CC1 [compound 12] | 9.5 | 3.0 | 3.6 | 5.5 | – | – |
| Cn1cc(-c2ccc3occ(-c4cccc(-c5ccncc5)c4)c3n2)cn1 [compound 5, MU1210] | 9.3 | 5.94 | 1.5 | 8.27 | – | – |
| COC(=N)c1nc2ccc3ncnc(Nc4ccc(OC)cc4F)c3c2s1 [compound 13, ETH1610] | 10.3 | 3.8 | 3.4 | 9.2 | – | – |
| Cn1c2c(c3ccc(Cl)c(Cl)c31)C(C#N)C1(CCNCC1)NC2=O (racemic) [compound 3, KH-CARB13] | 7.4 | – | 1.2 | 5.8 | 2810 ± 670 | ΔTm (°C) 3 [7]: 7.0 degC; ΔTm (°C) 3 [8]: 2.2 degC; Ki [9]: 850 ± 300 nM |
| CCOC(=O)c1c(/C(C#N)=C\N)c2ccc(Cl)c(Cl)c2n1C [compound 7, KH-CB19] | – | – | – | – | – | wild type CLK3 [10]: 8.6 °C; wild type CLK1 [11]: 15.0 °C |
| Cn1cc(-c2ccc3occ(-c4cccc(Oc5ccccc5)c4)c3n2)cn1 [compound 14, VN412] | 12.3 | 7.8 | 4.8 | 10.1 | – | – |
| CN[C@@H]1C[C@H]2O[C@@](C)([C@@H]1OC)n1c3ccccc3c3c4c(c5c6ccccc6n2c5c31)C(=O)NC4 [compound 6, staurosporine] | – | – | – | – | – | wild type CLK3 [10]: 4.7 °C |
| CC(=O)c1cccc(-c2cnc3ccc(NC(CO)C(C)C)nn23)c1 (stereo not shown) [compound 9, K00518] | – | – | – | – | 2640 ± 1800 | Ki [5]: 943 ± 640 nM |
| CN1CCN(C(=O)C(C)(C)c2ccc(C(=O)Nc3cn4cc(-c5ccncc5)ccc4n3)cc2)CC1 [compound 10] | 18.7 | 13.7 | 13.7 | 17.3 | – | – |
| CCOc1ccc2c(-c3ccnc(Nc4cc(OC)cc(C(F)(F)F)c4)n3)cnn2n1 [compound 8, GW807982X] | – | – | – | – | 3930 ± 1100 | Ki [5]: 36 ± 20 nM; wild type CLK3 [10]: 2.0 °C; wild type CLK1 [11]: 9 °C |
| Nc1ncnc2c1c(I)cn2C1OC(CO)C(O)C1O (stereo not shown) [compound 18, iodotubercidin] | 13.1 | 9.7 | 7.9 | 14.1 | – | – |
| CN1CCN(C(=O)C(C)(C)c2ccc(C(=O)Nc3cn4cc(-c5ccncc5)ccc4n3)cc2)CC1 [compound 10, T3-CLK] | – | – | – | – | 2.3 ± 0.1 | Ki [5]: 1 ± 0.1 nM |
